From patent publication US8173638B2 (Boehringer Ingelheim International GmbH, priority 2006, dated 2012) come the findings set out here.

T1 sequence (P34972 whole entry): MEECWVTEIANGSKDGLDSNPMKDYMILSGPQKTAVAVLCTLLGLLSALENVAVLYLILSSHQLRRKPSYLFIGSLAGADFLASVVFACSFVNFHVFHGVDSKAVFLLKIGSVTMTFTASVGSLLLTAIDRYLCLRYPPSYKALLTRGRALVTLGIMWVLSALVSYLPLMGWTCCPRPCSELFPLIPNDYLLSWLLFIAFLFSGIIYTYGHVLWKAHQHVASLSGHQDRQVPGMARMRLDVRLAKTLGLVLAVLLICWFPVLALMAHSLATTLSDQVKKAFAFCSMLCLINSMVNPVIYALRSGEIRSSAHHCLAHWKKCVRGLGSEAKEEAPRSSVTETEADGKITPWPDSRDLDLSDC

This test addresses T1, human CB2R (Homo sapiens, UniProt P34972).
T1 construct: host or cells: CHO cells
Description: CB2R mediated modulation of cAMP synthesis. It is filed as cell-based. The conditions noted are these: found through the use of the described assays (CB2 agonists); qualitative statement. As to the method:
B. CB2R Mediated Modulation of cAMP Synthesis:
CHO cells expressing human CB2R (Euroscreen) were plated at a density of 5000 cells per well in 384 well plates and incubated overnight at 37° C. After removing the media, the cells were treated with test compounds diluted in stimulation buffer containing 1 mM IBMX, 0.25% BSA and 10 uM Forskolin. The assay was incubated for 30 minutes at 37° C. Cells were lysed and the cAMP concentration was measured using DiscoverX-XS cAMP kit, following the manufacturer's protocol. In this setting, agonists will decrease forskolin induced production of cAMP while inverse agonists will further increase forskolin induced production of cAMP. EC50 of agonists were calculated as follows. The maximal amount of cAMP produced by forskolin compared to the level of cAMP inhibited by 1 uM CP55940 is defined as 100%. […] Data was analyzed using a four-parameter logistic model. (Model 205 of XLfit 4.0).
On to `CCCCc1ccc(NC(=O)N2CCCN(C(=O)C3CCCCC3)CC2)cc1`, for which the agonistic activity result is “agonistic activity”.
`CCCCc1ccc(NC(=O)N2CCCN(C(=O)CC3CCCC3)CC2)cc1`: the agonistic activity result is on record as “agonistic activity”.
As for `O=C(Nc1ccc(C(F)(F)F)cc1)N1CCCN(C(=O)c2ccc(C(F)(F)F)cc2)CC1`, the entry is “agonistic activity”; as for `Cc1onc(NC(=O)N2CCCN(C(=O)C3CCOCC3)CC2)c1C`, “agonistic activity”.
For `CC(C)(C)c1cc(NC(=O)N2CCCN(C(=O)Nc3ccccc3)CC2)no1`, the agonistic activity result is reported as “agonistic activity”.
For the molecule `CC(C)(C)c1cc(NC(=O)N2CCCN(C(=O)NC3CCOCC3)CC2)no1`, the agonistic activity result was “agonistic activity”.
Consider `CC(C)(C)c1cc(NC(=O)N2CCCN(C(=O)NC3CCCC3)CC2)no1`, for which the agonistic activity entry is given as “agonistic activity”.
For `CC(C)(C)c1cc(NC(=O)N2CCCN(C(=O)NC3CCCCC3)CC2)no1`, the agonistic activity entry is on record as “agonistic activity”.
As to `CC(C)(C)c1cc(NC(=O)N2CCCN(C(=O)N3CCS(=O)(=O)CC3)CC2)on1` [4-(1,1-Dioxo-1λ^6-thiomorpholine-4-carbonyl)-[1,4]diazepane-1-carboxylic acid (3-tert-butyl-isoxazol-5-yl)-amide], the agonistic activity result is “agonistic activity”.
In the case of `CC(C)(C)c1cccc(NC(=O)N2CCCN(C(=O)N3CCS(=O)(=O)CC3)CC2)c1` [4-(1,1-Dioxo-1λ^6-thiomorpholine-4-carbonyl)-[1,4]diazepane-1-carboxylic acid (3-tert-butyl-phenyl)-amide], the agonistic activity entry is “agonistic activity”.
For the molecule `O=C(Nc1nc2c(s1)CCCC2)N1CCCN(C(=O)N2CCS(=O)(=O)CC2)CC1` [4-(1,1-Dioxo-1λ^6-thiomorpholine-4-carbonyl)-[1,4]diazepane-1-carboxylic acid (4,5,6,7-tetrahydro-benzothiazol-2-yl)-amide], the agonistic activity result is recorded as “agonistic activity”.
As for `CCC(C)c1ccc(NC(=O)N2CCCN(C(=O)N3CCS(=O)(=O)CC3)CC2)cc1` (centres unmarked) [4-(1,1-Dioxo-1λ^6-thiomorpholine-4-carbonyl)-[1,4]diazepane-1-carboxylic acid (4-sec-butyl-phenyl)-amide], the entry is “agonistic activity”; as for `CC(C)(C)c1ccc(NC(=O)N2CCCN(C(=O)N3CCS(=O)(=O)CC3)CC2)cc1` [4-(1,1-Dioxo-1λ^6-thiomorpholine-4-carbonyl)-[1,4]diazepane-1-carboxylic acid (4-tert-butyl-phenyl)-amide], “agonistic activity”; as for `CC(C)c1cnc(NC(=O)N2CCCN(C(=O)N3CCS(=O)(=O)CC3)CC2)s1` [4-(1,1-Dioxo-1λ^6-thiomorpholine-4-carbonyl)-[1,4]diazepane-1-carboxylic acid (5-isopropyl-thiazol-2-yl)-amide], “agonistic activity”.
As to `CC(C)(C)c1cnc(NC(=O)N2CCCN(C(=O)N3CCS(=O)(=O)CC3)CC2)s1` [4-(1,1-Dioxo-1λ^6-thiomorpholine-4-carbonyl)-[1,4]diazepane-1-carboxylic acid (5-tert-butyl-thiazol-2-yl)-amide], the agonistic activity entry is “agonistic activity”.
For `CC(c1ccc(NC(=O)N2CCCN(C(=O)N3CCS(=O)(=O)CC3)CC2)cc1)C(F)(F)F` (centres unmarked) [4-(1,1-Dioxo-1λ^6-thiomorpholine-4-carbonyl)-[1,4]diazepane-1-carboxylic acid [4-(2,2,2-trifluoro-1-methyl-ethyl)-phenyl]-amide], the agonistic activity entry was “agonistic activity”.
In the case of `CC(C)(C)c1cc(NC(=O)N2CCCN(C(=O)C3CCS(=O)(=O)CC3)CC2)no1` [4-(1,1-Dioxo-hexahydro-1λ^6-thiopyran-4-carbonyl)-[1,4]diazepane-1-carboxylic acid (5-tert-butyl-isoxazol-3-yl)-amide], the agonistic activity result is listed as “agonistic activity”.
As for `CC(=O)N1CCC(C(=O)N2CCCN(C(=O)Nc3cc(C(C)(C)C)on3)CC2)CC1` [4-(1-Acetyl-piperidine-4-carbonyl)-[1,4]diazepane-1-carboxylic acid (5-tert-butyl-isoxazol-3-yl)-amide], the entry is “agonistic activity”.
To `CC(C)(C)c1cc(NC(=O)N2CCCN(C(=O)C3CCCN(S(C)(=O)=O)C3)CC2)no1` (centres unmarked) [4-(1-Methanesulfonyl-piperidine-3-carbonyl)-[1,4]diazepane-1-carboxylic acid (5-tert-butyl-isoxazol-3-yl)-amide] belongs “agonistic activity”; to `CC(C)(C)c1cc(NC(=O)N2CCCN(C(=O)C3CCN(S(C)(=O)=O)CC3)CC2)no1` [4-(1-Methanesulfonyl-piperidine-4-carbonyl)-[1,4]diazepane-1-carboxylic acid (5-tert-butyl-isoxazol-3-yl)-amide], “agonistic activity”.
As to `CC1(C(=O)N2CCCN(C(=O)Nc3cc(C(C)(C)C)on3)CC2)CCCCC1` [4-(1-Methyl-cyclohexanecarbonyl)-[1,4]diazepane-1-carboxylic acid (5-tert-butyl-isoxazol-3-yl)-amide], the agonistic activity result is reported as “agonistic activity”.
For the molecule `CC(C)(C)c1cc(NC(=O)N2CCCN(C(=O)N3CC[S+]([O-])CC3)CC2)no1` [4-(1-Oxo-1λ^4-thiomorpholine-4-carbonyl)-[1,4]diazepane-1-carboxylic acid (5-tert-butyl-isoxazol-3-yl)-amide], the agonistic activity result is reported as “agonistic activity”.
To `CC(C)(C)C(=O)N1CCCN(C(=O)Nc2ccc(C(C)(C)C)cc2)CC1` [4-(2,2-Dimethyl-propionyl)-[1,4]diazepane-1-carboxylic acid (4-tert-butyl-phenyl)-amide] belongs “agonistic activity”; to `CC(C)(C)C(=O)N1CCCN(C(=O)Nc2cc(C(C)(C)C)on2)CC1` [4-(2,2-Dimethyl-propionyl)-[1,4]diazepane-1-carboxylic acid (5-tert-butyl-isoxazol-3-yl)-amide], “agonistic activity”.
Take `CC(C)(C)C(=O)N1CCCN(C(=O)Nc2ccc3ccccc3c2)CC1` [4-(2,2-Dimethyl-propionyl)-[1,4]diazepane-1-carboxylic acid naphthalen-2-ylamide]: the agonistic activity entry was “agonistic activity”.
With `O=C(Nc1ccc2ccccc2c1)N1CCCN(C(=O)c2cc(Cl)ccc2Cl)CC1` [4-(2,5-Dichloro-benzoyl)-[1,4]diazepane-1-carboxylic acid naphthalen-2-ylamide], the agonistic activity entry is recorded as “agonistic activity”.
As to `O=C(CC1CCCCC1)N1CCCN(C(=O)Nc2ccc3ccccc3c2)CC1` [4-(2-Cyclohexyl-acetyl)-[1,4]diazepane-1-carboxylic acid (2-naphthyl)-amide], the agonistic activity entry is recorded as “agonistic activity”.
With `CCCCc1ccc(NC(=O)N2CCCN(C(=O)CC3CCCCC3)CC2)cc1` [4-(2-Cyclohexyl-acetyl)-[1,4]diazepane-1-carboxylic acid (4-butyl-phenyl)-amide], the agonistic activity entry is given as “agonistic activity”.
Take `CCc1ccc(NC(=O)N2CCCN(C(=O)CC3CCCCC3)CC2)cc1` [4-(2-Cyclohexyl-acetyl)-[1,4]diazepane-1-carboxylic acid (4-ethyl-phenyl)-amide]: the agonistic activity result was “agonistic activity”.
